The source made the active and inactive calls. The calls are words filed in the database; no cut-off is given here.

The target of one assay is T1, Tyrosine-protein kinase SYK (Homo sapiens, UniProt P43405). The experiment in a line: Inhibition of SYK in human mast cell cultures assessed as reduction in IgE-induced FCepsilonR1 mediated degranulation by tryptase release assay.
`N#Cc1cnc(Nc2cccc(O)c2)nc1Nc1cccc(O)c1`: the EC50 (commonly the midpoint of the concentration-response curve) was found to be 0.44 µM.

As for `COC(=O)COc1ccc(Nc2nc(Nc3ccc(OCC(N)=O)cc3)ncc2F)cc1`, the concentration for a half-maximal effect (EC50) is 0.94 µM.

With `Oc1cccc(Nc2ncc(-c3ccccc3)c(Nc3cccc(O)c3)n2)c1`, the EC50 was determined as 2.9 µM.

With `CCOc1ccc(Nc2cc(Cl)nc(Nc3ccc(OCC)cc3)n2)cc1`, the inhibition entry was “inactive”.

Regarding `NC(=O)COc1ccc(Nc2nc(Nc3cccc(O)c3)ncc2F)cc1`, the concentration giving a half-maximal response (EC50) is 1.55 µM.

For `CCOc1cccc(Nc2ncc(F)c(Nc3cccc(OCC)c3)n2)c1`, the EC50 is 3.1 µM.

For `CCOC(=O)CNc1cccc(Nc2ncc(F)c(Nc3cccc(O)c3)n2)c1`, the EC50 turned out to be 0.33 µM.

In the case of `CCOc1ccc(Nc2ccnc(Nc3ccc(OCC)cc3)n2)cc1`, the EC50 stood at 3.38 µM.

In the case of `CC(C)Oc1ccc(Nc2ncc(F)c(Nc3ccc(OC(C)C)cc3)n2)cc1`, the EC50 was determined as 2.2 µM.

For the compound `COc1ccc(Nc2ncc(F)c(Nc3ccc(OC)cc3)n2)cc1`, the EC50 was 1.43 µM.

As to `CNC(=O)COc1cccc(Nc2ncc(F)c(Nc3ccc(OC(F)(F)F)cc3)n2)c1`, the EC50 was determined as 0.4 µM.

With `Cn1nnnc1COc1ccc(Nc2ncc(F)c(Nc3ccc(OCc4nnnn4C)cc3)n2)cc1`, the concentration for a half-maximal effect (EC50) is 0.76 µM.

As to `O=C(O)COc1ccc(Nc2ncc(F)c(Nc3ccc(OCC(=O)O)cc3)n2)cc1`, the inhibition entry was “inactive”.

As for `OCCOc1cccc(Nc2nc(Nc3cccc(O)c3)ncc2F)c1`, the concentration for a half-maximal effect (EC50) was determined as 0.67 µM.

With `Oc1ccc(Nc2ncc(F)c(Nc3ccc(O)cc3)n2)cc1`, the 50% effective concentration (EC50) came to 3.4 µM.

`OCc1cccc(Nc2ncc(F)c(Nc3cccc(CO)c3)n2)c1`: the EC50 stood at 2.8 µM.

In the case of `Oc1cccc(Nc2ncc(Br)c(Nc3cccc(O)c3)n2)c1`, the EC50 came out at 0.23 µM.

As to `Oc1cccc(Nc2ncc(C(F)(F)F)c(Nc3cccc(O)c3)n2)c1`, the half-maximal effective concentration (EC50) amounted to 0.27 µM.

Consider `Oc1cccc(Nc2ccnc(Nc3cccc(O)c3)n2)c1`, for which the EC50 was 0.5 µM.

Consider `NC(=O)COc1ccc(Nc2ncc(F)c(Nc3ccc(OCC(N)=O)cc3)n2)cc1`, for which the inhibition entry is “inactive”.

With `Cc1cnc(Nc2cccc(O)c2)nc1Nc1cccc(O)c1`, the half-maximal effective concentration (EC50) turned out to be 0.9 µM.

For `COC(=O)COc1ccc(Nc2ncc(F)c(Nc3ccc(OCC(N)=O)cc3)n2)cc1`, the EC50 was 0.43 µM.

For `Fc1cnc(Nc2ccc(N3CCOCC3)cc2)nc1Nc1ccc(N2CCOCC2)cc1`, the concentration for a half-maximal effect (EC50) came to 4.14 µM.

`CCOc1ccc(Nc2ncc(C)c(Nc3ccc(OCC)cc3)n2)cc1`: the inhibition result was “inactive”.

Turning to `Fc1cnc(Nc2ccc(OCc3nnn[nH]3)cc2)nc1Nc1ccc(OCc2nnn[nH]2)cc1`, the inhibition entry was “inactive”.

For `Oc1cccc(Nc2cc(-c3ccccc3)nc(Nc3cccc(O)c3)n2)c1`, the EC50 turned out to be 5.8 µM.

On to `N#Cc1ccc(Nc2ncc(F)c(Nc3ccc(C#N)cc3)n2)cc1`, for which the concentration for a half-maximal effect (EC50) was determined as 9.83 µM.

For `Fc1cnc(Nc2ccc(C(F)(F)F)cc2)nc1Nc1ccc(C(F)(F)F)cc1`, the inhibition entry was “inactive”.

Regarding `CCOc1ccc(Nc2nc(Nc3cccc(OCC(=O)NC)c3)ncc2F)cc1`, the concentration giving a half-maximal response (EC50) amounted to 1.1 µM.

As for `Nc1ccc(Nc2ncc(F)c(Nc3ccc(N)cc3)n2)cc1`, the 50% effective concentration (EC50) is 4.25 µM.

Regarding `N#Cc1cccc(Nc2ncc(F)c(Nc3cccc(C#N)c3)n2)c1`, the EC50 was 0.95 µM.

Consider `COCCOc1cccc(Nc2ncc(F)c(Nc3cccc(OCCOC)c3)n2)c1`, for which the EC50 is 4.15 µM.

Consider `CNC(=O)COc1cccc(Nc2ncc(F)c(Nc3ccc(N4CCOCC4)cc3)n2)c1`, for which the EC50 was determined as 1.29 µM.

Consider `CC(C)(CO)c1ccc(Nc2nc(Nc3cccc(OCCO)c3)ncc2F)cc1`, for which the EC50 was determined as 0.28 µM.

In the case of `COc1cccc(Nc2ncc(F)c(Nc3cccc(OC)c3)n2)c1`, the EC50 was 1.73 µM.

With `Fc1cnc(Nc2cccc(Cl)c2)nc1Nc1cccc(Cl)c1`, the EC50 worked out at 5.81 µM.

With `N#CCOc1ccc(Nc2ncc(F)c(Nc3ccc(OCC#N)cc3)n2)cc1`, the concentration for a half-maximal effect (EC50) amounted to 0.37 µM.

As to `OCCOc1cccc(Nc2ncc(F)c(Nc3cccc(OCCO)c3)n2)c1`, the 50% effective concentration (EC50) was 0.93 µM.

Turning to `NC(=O)COc1ccc(Nc2ncc(F)c(Nc3cccc(O)c3)n2)cc1`, the EC50 is 0.53 µM.

Regarding `COC(=O)COc1ccc(Nc2ncc(F)c(Nc3ccc(OCC(=O)OC)cc3)n2)cc1`, the EC50 came out at 0.38 µM.

Regarding `CNC(=O)COc1cccc(Nc2ncc(F)c(Nc3ccc(C(F)(F)F)cc3)n2)c1`, the EC50 was 0.21 µM.

On to `CNC(=O)COc1cccc(Nc2ncc(F)c(Nc3ccc(C(C)(C)C)cc3)n2)c1`, for which the EC50 turned out to be 0.43 µM.

Regarding `Fc1cnc(Nc2cccc(OC(F)(F)F)c2)nc1Nc1cccc(OC(F)(F)F)c1`, the EC50 came out at 5.08 µM.

Another assay has as its target T1, Tyrosine-protein kinase SYK. The assay can be described thus: Inhibition of SYK in human mast cell cultures assessed as reduction in ionomycin-induced calcium mobilization mediated degranulation by tryptase release assay. For orientation: Calcium flux is commonly read through the fluorescence of an indicator in the cells.
With `N#Cc1cnc(Nc2cccc(O)c2)nc1Nc1cccc(O)c1`, the inhibition entry was “inactive”.

Regarding `Oc1cccc(Nc2ncc(F)c(Nc3cccc(O)c3)n2)c1`, the inhibition result was “inactive”.

With `COC(=O)COc1ccc(Nc2nc(Nc3ccc(OCC(N)=O)cc3)ncc2F)cc1`, the concentration giving a half-maximal response (EC50) turned out to be 10 µM.

In the case of `Oc1cccc(Nc2ncc(-c3ccccc3)c(Nc3cccc(O)c3)n2)c1`, the inhibition result is “inactive”.

With `CCOc1ccc(Nc2cc(Cl)nc(Nc3ccc(OCC)cc3)n2)cc1`, the inhibition result was “inactive”.

In the case of `NC(=O)COc1ccc(Nc2nc(Nc3cccc(O)c3)ncc2F)cc1`, the EC50 was found to be 10 µM.

On to `CCOc1cccc(Nc2ncc(F)c(Nc3cccc(OCC)c3)n2)c1`, for which the inhibition result was “inactive”.

For the compound `CCOC(=O)CNc1cccc(Nc2ncc(F)c(Nc3cccc(O)c3)n2)c1`, the inhibition result is “inactive”.

As to `CCOc1ccc(Nc2ccnc(Nc3ccc(OCC)cc3)n2)cc1`, the inhibition entry was “inactive”.

Regarding `CC(C)Oc1ccc(Nc2ncc(F)c(Nc3ccc(OC(C)C)cc3)n2)cc1`, the inhibition entry is “inactive”.

For `COc1ccc(Nc2ncc(F)c(Nc3ccc(OC)cc3)n2)cc1`, the inhibition result was “inactive”.

Take `CNC(=O)COc1cccc(Nc2ncc(F)c(Nc3ccc(OC(F)(F)F)cc3)n2)c1`: the inhibition entry was “inactive”.

On to `Cn1nnnc1COc1ccc(Nc2ncc(F)c(Nc3ccc(OCc4nnnn4C)cc3)n2)cc1`, for which the inhibition result was “inactive”.

As for `O=C(O)COc1ccc(Nc2ncc(F)c(Nc3ccc(OCC(=O)O)cc3)n2)cc1`, the inhibition result is “inactive”.

In the case of `CCOc1ccc(Nc2ncc(F)c(Nc3ccc(OCC)cc3)n2)cc1`, the inhibition result is “inactive”.

With `OCCOc1cccc(Nc2nc(Nc3cccc(O)c3)ncc2F)c1`, the inhibition result is “inactive”.

On to `Oc1ccc(Nc2ncc(F)c(Nc3ccc(O)cc3)n2)cc1`, for which the inhibition entry is “inactive”.

Turning to `OCc1cccc(Nc2ncc(F)c(Nc3cccc(CO)c3)n2)c1`, the inhibition entry was “inactive”.

For the compound `Oc1cccc(Nc2ncc(Br)c(Nc3cccc(O)c3)n2)c1`, the inhibition entry is “inactive”.

Turning to `Oc1cccc(Nc2ncc(C(F)(F)F)c(Nc3cccc(O)c3)n2)c1`, the inhibition entry is “inactive”.

Regarding `Oc1cccc(Nc2ccnc(Nc3cccc(O)c3)n2)c1`, the inhibition entry is “inactive”.

For `NC(=O)COc1ccc(Nc2ncc(F)c(Nc3ccc(OCC(N)=O)cc3)n2)cc1`, the inhibition entry was “inactive”.

Regarding `Cc1cnc(Nc2cccc(O)c2)nc1Nc1cccc(O)c1`, the inhibition result is “inactive”.

With `COC(=O)COc1ccc(Nc2ncc(F)c(Nc3ccc(OCC(N)=O)cc3)n2)cc1`, the concentration giving a half-maximal response (EC50) came to 2.48 µM.

As for `N#CCOc1ccc(Nc2ncc(F)c(Nc3cccc(O)c3)n2)cc1`, the concentration for a half-maximal effect (EC50) was 10 µM.

Turning to `Fc1cnc(Nc2ccc(N3CCOCC3)cc2)nc1Nc1ccc(N2CCOCC2)cc1`, the inhibition result was “inactive”.

As to `CCOc1ccc(Nc2ncc(C)c(Nc3ccc(OCC)cc3)n2)cc1`, the inhibition result is “inactive”.

`Fc1cnc(Nc2ccc(OCc3nnn[nH]3)cc2)nc1Nc1ccc(OCc2nnn[nH]2)cc1`: the inhibition entry is “inactive”.

For the compound `Oc1cccc(Nc2cc(-c3ccccc3)nc(Nc3cccc(O)c3)n2)c1`, the inhibition result is “inactive”.

Turning to `N#Cc1ccc(Nc2ncc(F)c(Nc3ccc(C#N)cc3)n2)cc1`, the inhibition entry is “inactive”.

Take `Fc1cnc(Nc2ccc(C(F)(F)F)cc2)nc1Nc1ccc(C(F)(F)F)cc1`: the inhibition entry was “inactive”.

Regarding `CCOc1ccc(Nc2nc(Nc3cccc(OCC(=O)NC)c3)ncc2F)cc1`, the inhibition entry was “inactive”.

On to `Nc1ccc(Nc2ncc(F)c(Nc3ccc(N)cc3)n2)cc1`, for which the inhibition entry is “inactive”.

In the case of `N#Cc1cccc(Nc2ncc(F)c(Nc3cccc(C#N)c3)n2)c1`, the inhibition entry was “inactive”.

Consider `COCCOc1cccc(Nc2ncc(F)c(Nc3cccc(OCCOC)c3)n2)c1`, for which the inhibition entry is “inactive”.

With `CNC(=O)CNc1cccc(Nc2ncc(F)c(Nc3cccc(O)c3)n2)c1`, the inhibition result was “inactive”.

In the case of `CNC(=O)COc1cccc(Nc2ncc(F)c(Nc3ccc(N4CCOCC4)cc3)n2)c1`, the inhibition result was “inactive”.

Consider `CC(C)(CO)c1ccc(Nc2nc(Nc3cccc(OCCO)c3)ncc2F)cc1`, for which the inhibition result is “inactive”.

Regarding `COc1cccc(Nc2ncc(F)c(Nc3cccc(OC)c3)n2)c1`, the inhibition entry was “inactive”.

Turning to `Fc1cnc(Nc2cccc(Cl)c2)nc1Nc1cccc(Cl)c1`, the inhibition entry is “inactive”.

In the case of `N#CCOc1ccc(Nc2ncc(F)c(Nc3ccc(OCC#N)cc3)n2)cc1`, the inhibition entry is “inactive”.

For the compound `OCCOc1cccc(Nc2ncc(F)c(Nc3cccc(OCCO)c3)n2)c1`, the inhibition entry is “inactive”.

Take `NC(=O)COc1ccc(Nc2ncc(F)c(Nc3cccc(O)c3)n2)cc1`: the EC50 was found to be 10 µM.

Turning to `COC(=O)COc1ccc(Nc2ncc(F)c(Nc3ccc(OCC(=O)OC)cc3)n2)cc1`, the EC50 was found to be 1.7 µM.

Regarding `CNC(=O)COc1cccc(Nc2ncc(F)c(Nc3ccc(C(F)(F)F)cc3)n2)c1`, the inhibition entry is “inactive”.

In the case of `CNC(=O)COc1cccc(Nc2ncc(F)c(Nc3ccc(C(C)(C)C)cc3)n2)c1`, the half-maximal effective concentration (EC50) stood at 10 µM.

As to `Fc1cnc(Nc2cccc(OC(F)(F)F)c2)nc1Nc1cccc(OC(F)(F)F)c1`, the inhibition entry is “inactive”.

(Values after ChEMBL document CHEMBL3399965, “Application of cultured human mast cells (CHMC) for the design and structure-activity relationship of IgE-mediated mast cell activation inhibitors” (Bioorg Med Chem Lett, 2015).)
